Columns and labels:
FPR1 = conditions: cited from earlier work
Excerpt: FPR1 and FPR2 share a high 69% sequence identity, but they have distinct preferences for formylpeptides and play different roles in host defense[4],[40],[43]. […] To explore the molecular basis for the different receptor pharmacology, we generated a three-dimensional homology model of FPR1 ...

C5aR = target: T1, C5aR (Homo sapiens, UniProt P21730); test: 35S-GTPγS binding assay, Sf9 cell membranes overexpressing C5aR with purified Gi (control); format: biochemical; conditions: increasing concentrations of WKYMVm, n = 3
T1 construct: expressed in transfected cells; host or cells: Sf9 insect cells, membranes
T1 sequence (P21730 1-350): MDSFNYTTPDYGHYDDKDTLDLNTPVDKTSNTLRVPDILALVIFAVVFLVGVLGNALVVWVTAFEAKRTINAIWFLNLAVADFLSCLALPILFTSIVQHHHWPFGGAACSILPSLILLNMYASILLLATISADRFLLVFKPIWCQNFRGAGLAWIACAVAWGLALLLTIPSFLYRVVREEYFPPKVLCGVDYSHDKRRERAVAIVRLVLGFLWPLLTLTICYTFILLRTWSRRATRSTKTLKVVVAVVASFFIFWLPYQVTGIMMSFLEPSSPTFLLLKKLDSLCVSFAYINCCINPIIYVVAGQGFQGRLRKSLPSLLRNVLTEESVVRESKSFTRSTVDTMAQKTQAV
Description: To form receptor-Gi complex, ~250 μg/ml of membrane of Sf9 cells overexpressing FPR2 or C5aR (for Fig. 1a) or membrane of HEK-293 cells transiently expressing FPR2 and mutants was incubated with 200 nM purified Gi protein for 25 minutes at 4°C in buffer containing 20 mM HEPES pH 7.5, 100 mM NaCl, 5 mM MgCl2, 5 μM GDP, 0.1 μM TCEP, and 3 μg/ml BSA. […] After 10–15 min reaction at 25 °C, 4 ml of cold wash buffer containing 20 mM HEPES pH 7.5, 100 mM NaCl and 5 mM MgCl2 was added to terminate the reaction, and the membranes was collected by filtering through glass fiber prefilters (Millipore Sigma). After four times additional wash, the filters were incubated with 5 ml of CytoScint liquid scintillation cocktail (MP Biomedicals) and counted in a Beckman LS6500 scintillation counter to determine the receptor activation induced binding of ^35S-GTPγS to Gi. The data were analyzed by GraphPad Prism 6 (GraphPad Software). Results are presented as mean ± s.e.m. from three independent experiments.

FPR2 R201A [1] = target: T2, FPR2 R201A (Homo sapiens, UniProt P25090, R201A); test: BRET assay of Gi coupling to FPR2-Rluc8, permeabilized HEK-293 cells, R201A; format: cell-based; set-up: expressed in transfected cells; host or cells: HEK-293 cells (ATCC), transient, digitonin-permeabilized
Description: (§1) HEK-293 cells (ATCC, Manassas, VA, USA) were propagated in plastic flasks and on 6-well plates according to the supplier’s protocol. To measure Gi coupling to FPR2, cells were transiently transfected with an FPR2-Rluc8 receptor (wt or mutant) and Gαi1, Venus-1-155-Gγ2 and Venus-155-239-Gβ1 using linear polyethyleneimine MAX (PEI MAX; MW 40,000) at an N/P ratio of 20 and were used for experiments 48 h later. Up to 3.0 μg of plasmid DNA was transfected in each well of a 6-well plate. To measure BRET signals, cells were washed twice with permeabilization buffer (KPS) containing 140 mM KCl, 10 mM NaCl, 1 mM MgCl2, 0.1 mM KEGTA, 20 mM NaHEPES (pH 7.2), harvested by trituration, permeabilized in KPS buffer containing 10 μg ml^−1 high purity digitonin, and transferred to opaque black 96-well plates containing diluted ligands and 2U ml^−1 apyrase. After addition of coelenterazine h (5 µM; Nanolight, Pinetop, AZ, USA), steady-state BRET measurements were made using a Mithras LB940 photon-counting plate reader (Berthold Technologies GmbH, Bad Wildbad, Germany). Raw BRET signals were calculated as the emission intensity at 520–545 nm divided by the emission intensity at 475–495 nm. The data were analyzed in Prism (GraphPad) by using ‘log(agonist) vs normalized response- variable slope (four parameters)’ of dose-response stimulation.
Target sequence in this assay (P25090 whole entry R201A): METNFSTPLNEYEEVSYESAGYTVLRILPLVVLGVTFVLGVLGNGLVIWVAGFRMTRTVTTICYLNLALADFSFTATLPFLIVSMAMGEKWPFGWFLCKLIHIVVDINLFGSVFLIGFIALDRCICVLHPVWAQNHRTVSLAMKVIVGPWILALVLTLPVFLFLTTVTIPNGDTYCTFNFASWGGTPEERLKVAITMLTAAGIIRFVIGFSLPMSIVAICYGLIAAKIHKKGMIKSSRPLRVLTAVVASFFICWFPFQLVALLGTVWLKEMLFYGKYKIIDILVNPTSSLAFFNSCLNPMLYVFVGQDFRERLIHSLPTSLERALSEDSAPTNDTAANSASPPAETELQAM
Target sequence in this assay (P63096 whole entry partner): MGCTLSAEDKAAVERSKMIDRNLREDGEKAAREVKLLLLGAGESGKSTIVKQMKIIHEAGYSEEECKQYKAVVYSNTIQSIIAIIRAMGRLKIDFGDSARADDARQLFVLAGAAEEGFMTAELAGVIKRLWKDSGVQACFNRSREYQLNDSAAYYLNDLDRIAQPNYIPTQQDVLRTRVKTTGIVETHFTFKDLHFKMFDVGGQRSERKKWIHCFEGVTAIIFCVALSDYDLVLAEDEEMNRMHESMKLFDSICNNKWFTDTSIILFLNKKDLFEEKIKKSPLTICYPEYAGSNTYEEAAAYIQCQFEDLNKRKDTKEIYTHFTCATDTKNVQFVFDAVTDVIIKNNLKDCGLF
Target sequence in this assay (P59768 whole entry partner): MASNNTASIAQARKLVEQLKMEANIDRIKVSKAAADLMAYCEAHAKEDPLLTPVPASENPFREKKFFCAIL
Target sequence in this assay (P62873 whole entry partner): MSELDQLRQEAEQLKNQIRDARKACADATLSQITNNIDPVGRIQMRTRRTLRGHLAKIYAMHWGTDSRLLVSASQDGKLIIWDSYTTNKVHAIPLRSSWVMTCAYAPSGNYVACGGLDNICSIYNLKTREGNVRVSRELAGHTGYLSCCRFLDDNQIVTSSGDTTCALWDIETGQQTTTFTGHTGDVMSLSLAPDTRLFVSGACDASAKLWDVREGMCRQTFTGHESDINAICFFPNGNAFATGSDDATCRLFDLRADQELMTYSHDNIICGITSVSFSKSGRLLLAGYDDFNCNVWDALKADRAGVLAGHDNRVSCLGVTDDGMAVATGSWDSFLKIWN

FPR2 R205A [2] = target: T3, FPR2 R205A (Homo sapiens, UniProt P25090, R205A); test: 35S-GTPγS binding assay, HEK-293 cell membranes with purified Gi, FPR2 R205A; format: biochemical; set-up: FLAG; expressed in transfected cells; host or cells: HEK-293 cells, transient, membranes
Target sequence in this assay (P25090 whole entry R205A): as the sequence (P25090 whole entry R201A) above, with A201R, R205A counted along it
Target sequence in this assay (P63096 whole entry partner): as the sequence (P63096 whole entry partner) above
Target sequence in this assay (P54311 whole entry partner): as the sequence (P62873 whole entry partner) above
Target sequence in this assay (P63212 2-68 partner limits assumed): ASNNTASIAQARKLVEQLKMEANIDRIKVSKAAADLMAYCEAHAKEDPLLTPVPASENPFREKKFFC

FPR2 R205A [3] = target: T3, FPR2 R205A; test: BRET assay of Gi coupling to FPR2-Rluc8, permeabilized HEK-293 cells, R205A; format: cell-based; set-up: expressed in transfected cells; host or cells: HEK-293 cells (ATCC), transient, digitonin-permeabilized
Description: as §1
Target sequence in this assay (P25090 whole entry R205A): as the sequence (P25090 whole entry R201A) above, with A201R, R205A counted along it
Target sequence in this assay (P63096 whole entry partner): as the sequence (P63096 whole entry partner) above
Target sequence in this assay (P59768 whole entry partner): as the sequence (P59768 whole entry partner) above
Target sequence in this assay (P62873 whole entry partner): as the sequence (P62873 whole entry partner) above

[4] = Aggregation of the ligand in assay buffer (authors' reply to reviewer); format: physicochemical; conditions: peptide with a high hydrophobicity; authors' statement in rebuttal, no data shown
FPR2 R201A [5] = target: T2, FPR2 R201A; test: 35S-GTPγS binding assay, HEK-293 cell membranes with purified Gi, FPR2 R201A; format: biochemical; set-up: FLAG; expressed in transfected cells; host or cells: HEK-293 cells, transient, membranes
Target sequence in this assay (P25090 whole entry R201A): as the sequence (P25090 whole entry R201A) above
Target sequence in this assay (P63096 whole entry partner): as the sequence (P63096 whole entry partner) above
Target sequence in this assay (P54311 whole entry partner): as the sequence (P62873 whole entry partner) above
Target sequence in this assay (P63212 2-68 partner limits assumed): as the sequence (P63212 2-68 partner limits assumed) above

Wild type FPR2 = conditions: cited from earlier work
Description: IC50 values of six formylpeptides in the cAMP accumulation assays reported previously by He et al., 2014*.

Trp-Lys-Tyr-Met-Val-d-Met-NH2 [WKYMVm, synthetic peptide agonist of FPR2]
potency for FPR1 compared with FPR2 (FPR1): lower potency | WKYMVm-induced Gi activation with C5aR (control) (C5aR): didn’t induce Gi activation

fMLF
fold more potent in activating FPR1 than activating FPR2 (FPR1): ~ 1000 fold

fMLFII [short formylpeptide]
fMLFII-induced Gi coupling, R201A mutant versus wt (FPR2 R201A [1]): dramatic decrease | fMLFII-induced FPR2 activation, R205A mutant versus wt (FPR2 R205A [2]): dramatic decrease | fMLFII-induced Gi coupling, R205A mutant versus wt (FPR2 R205A [3]): dramatic decrease | concentration above which fractions of aggregation could occur [4]: above 10 µM | fMLFII-induced FPR2 activation, R201A mutant versus wt (FPR2 R201A [5]): dramatic decrease

fMLFK
fold higher potency in activating FPR2 than fMLFE (Wild type FPR2): 500–5000 fold
